Results reported in patent US20250115582A1, “MOLECULAR GLUE DEGRADERS AND METHODS OF USING THE SAME” (Monte Rosa Therapeutics, Inc., priority 2022, published 2025).
Where a name gives a salt, the structure may show the parent alone.

How the values were obtained:
CRBN/DDB1 = CRBN/DDB1 (Homo sapiens, UniProt Q96SW2); experiment: HTRF binding assay (thalidomide probe displacement from CRBN/DDB1); details: CRBN/DDB1 2.5 nM, Cy5-Thalidomide 100 nM, 30 min; geometric mean; read-out: HTRF_Thali_Disp_DR—geo_IC50
Chain of CRBN/DDB1 (Q96SW2 whole entry): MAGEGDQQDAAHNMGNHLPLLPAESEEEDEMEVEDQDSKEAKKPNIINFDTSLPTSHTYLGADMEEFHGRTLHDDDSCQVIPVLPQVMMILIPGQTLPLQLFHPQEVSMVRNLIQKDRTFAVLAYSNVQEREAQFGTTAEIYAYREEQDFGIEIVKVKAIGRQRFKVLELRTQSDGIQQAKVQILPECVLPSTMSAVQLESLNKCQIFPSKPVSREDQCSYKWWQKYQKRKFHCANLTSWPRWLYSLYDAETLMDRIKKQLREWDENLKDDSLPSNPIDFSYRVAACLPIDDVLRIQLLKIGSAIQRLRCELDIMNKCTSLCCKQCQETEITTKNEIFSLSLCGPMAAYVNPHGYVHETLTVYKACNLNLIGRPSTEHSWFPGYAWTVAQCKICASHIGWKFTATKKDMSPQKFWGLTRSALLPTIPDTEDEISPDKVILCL
Chain of CRBN/DDB1 (Q16531 whole entry partner): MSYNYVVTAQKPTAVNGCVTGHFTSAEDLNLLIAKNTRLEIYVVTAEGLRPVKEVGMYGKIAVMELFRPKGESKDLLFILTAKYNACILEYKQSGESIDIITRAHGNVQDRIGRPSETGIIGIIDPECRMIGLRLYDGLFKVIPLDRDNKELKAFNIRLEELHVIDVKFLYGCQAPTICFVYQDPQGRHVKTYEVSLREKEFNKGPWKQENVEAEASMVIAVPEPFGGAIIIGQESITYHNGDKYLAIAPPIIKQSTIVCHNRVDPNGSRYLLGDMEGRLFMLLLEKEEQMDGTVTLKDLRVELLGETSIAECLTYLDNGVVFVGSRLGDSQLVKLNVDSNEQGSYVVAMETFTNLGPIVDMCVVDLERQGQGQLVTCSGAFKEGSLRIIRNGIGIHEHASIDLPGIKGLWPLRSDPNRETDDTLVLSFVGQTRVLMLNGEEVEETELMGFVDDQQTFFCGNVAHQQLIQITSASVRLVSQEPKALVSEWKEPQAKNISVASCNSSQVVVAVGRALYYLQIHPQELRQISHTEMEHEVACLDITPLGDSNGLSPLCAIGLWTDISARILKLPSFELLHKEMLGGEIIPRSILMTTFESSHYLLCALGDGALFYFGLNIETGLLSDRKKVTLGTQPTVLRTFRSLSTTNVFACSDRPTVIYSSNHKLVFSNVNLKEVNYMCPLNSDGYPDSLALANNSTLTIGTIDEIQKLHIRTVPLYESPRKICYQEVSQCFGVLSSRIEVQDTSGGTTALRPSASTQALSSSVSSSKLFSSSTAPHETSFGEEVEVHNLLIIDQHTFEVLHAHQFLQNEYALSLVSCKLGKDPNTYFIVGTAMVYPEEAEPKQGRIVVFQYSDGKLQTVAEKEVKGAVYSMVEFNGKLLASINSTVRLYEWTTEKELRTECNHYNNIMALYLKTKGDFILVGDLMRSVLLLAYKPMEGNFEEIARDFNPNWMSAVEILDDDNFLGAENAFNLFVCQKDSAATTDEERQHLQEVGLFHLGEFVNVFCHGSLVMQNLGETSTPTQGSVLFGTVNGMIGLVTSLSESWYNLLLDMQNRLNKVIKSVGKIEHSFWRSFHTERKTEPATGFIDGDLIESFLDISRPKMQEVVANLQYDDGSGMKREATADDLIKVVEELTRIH
From the text: Binding of test compounds to CRBN/DDB1 was monitored in an HTRF assay using 1-[5-({2-[2-(2-{[2-(2,6-dioxopiperidin-3-yl)-1,3-dioxo-2,3-dihydro-1H-isoindol-4-yl]oxy}acetamido)ethoxy]ethyl}carbamoyl)pentyl]-3,3-dimethyl-2-[(1E,3E)-5-[(2E)-1,3,3-trimethyl-5-sulfo-2,3-dihydro-1H-indol-2-ylidene]penta-1,3-dien-1-yl]-3H-indol-1-ium-5-sulfonate as a fluorescent probe. In this assay, compounds displace the fluorescently labeled thalidomide-based probe bound to CRBN and fluorescence is monitored with increasing compound concentration. Assays were conducted in Greiner white 384 well HiBase plates (Cat. No 784075-25) in 10 μL total volume. A one pot detection solution of CRBN/DDB1 (2.5 nM), anti-His Terbium Cryptate Gold (1×, PerkinElmer Cat. #: 61HI2TLB), and Cy5-Thalidomide (100 nM, Tenova Cat.: T52461) was prepared in 20 mM HEPES, 20 mM NaCl, 0.2 mM TCEP, 0.2 mM EDTA, and 0.005% Tween20 was dispensed to each assay plate. Test compounds were stored in dry, ambient temperatures at 10 mM. A 10-point, 1:3 dilution series was prepared from 10 mM stock concentrations in Echo-compatible LDV plates. 10 nL of each compound dilution series was dispensed into assays wells using an Echo 650 (Labcyte inc. USA). 10 nL of 10 mM lenalidomide (Selleckchem Cat no. S1029) was transferred into the active-control wells for the assay and 10 nL of DMSO was transferred into the negative control wells. The assay was then allowed to incubate for 30 min at ambient temperature after transferring the test compounds. Plate measurements were taken on a Pherastar FSX (BMG Labtech, Germany) using the HTRF Red filter (Ex. 337 nm, eml: 620 nm, em2: 665 nm) (Flashes: 50, Integration time: 60-400 μs, Z-height: 10 mm, Ratio-multiplier: 10,000). Analysis, HTRF ratio and IC50 values were derived using KNIME analytics (KNIME Zurich) transformation and fitting within Collaborative Drug Discovery (Collaborative Drug Discovery USA) using a 4-parameter logistic fit. HTRF ratio calculation was performed using the following formula: […]
where em665nm represents the measured emission at 665 nm upon excitation at 337 nm and em620nm the measured emission at 620 nm upon excitation at 337 nm. The 4 parameter logistic fitting model was performed using the following formula: […]
where Y represents the HTRF ratio response (as defined previously), X the compound concentration in μM, Ymin the minimum response plateau, Ymax the maximum response plateau, IC50 the concentration of agonist that gives a response half way between Ymin and Ymax and HillSlope the steepness of the family of curves. No fitting model constraints was applied on Ymin, or Ymax whilst IC50>0 and −0.5>HillSlope>−3
Ki values were derived from the geometric mean of the IC50 values using the Cheng-Prusoff transformation:
where [L] represents the concentration of fluorescent probe in μM, Kd the affinity (binding constant) of the fluorescent probe in units of μM and IC50 the concentration of agonist that gives a response halfway between Ymin and Ymax (as described in 1.2.1)
Analysis and IC50 values were derived using KNIME analytics (KNIME, Zurich) transformation and fitting within Collaborative Drug Discovery (Collaborative Drug Discovery, USA) as described in 1.2.1. Ki values were derived from the geometric mean of the IC50 values using the Cheng-Prusoff transformation as described in 2.2.2. Data was visualized in GraphPad Prism 8.1.2 (GraphPad, USA) and reported as mean and standard deviation. Microsoft Office Excel 2012 (Redmond, WA) was used for calculation of mean and standard deviation.
IC50 data are reported in Table 3 for compounds in Table 1. In Table 3 below, According to the code, A represents a IC50 value of ≤0.1 μM, B represents a IC50 value≥0.1 μM and ≤1 μM, C represents an IC50 value>1 μM.

CK1α = target: T1, CK1α (Homo sapiens, UniProt P48729+Q96SW2); experiment: CK1α NanoBiT assay (HiBiT-tagged CSNK1A1 in HEK293 clonal line); type: cell-based; details: HEK293 HiBiT-CSNK1A1/LgBiT cells, 24 h incubation, luminescence
T1 construct: HEK293 clonal line with CRISPR KI HiBiT tag on CSNK1A1; host or cells: HEK293 clonal line, CRISPR HiBiT knock-in at CSNK1A1, stably expressing LgBiT
T1 sequence (P48729 whole entry): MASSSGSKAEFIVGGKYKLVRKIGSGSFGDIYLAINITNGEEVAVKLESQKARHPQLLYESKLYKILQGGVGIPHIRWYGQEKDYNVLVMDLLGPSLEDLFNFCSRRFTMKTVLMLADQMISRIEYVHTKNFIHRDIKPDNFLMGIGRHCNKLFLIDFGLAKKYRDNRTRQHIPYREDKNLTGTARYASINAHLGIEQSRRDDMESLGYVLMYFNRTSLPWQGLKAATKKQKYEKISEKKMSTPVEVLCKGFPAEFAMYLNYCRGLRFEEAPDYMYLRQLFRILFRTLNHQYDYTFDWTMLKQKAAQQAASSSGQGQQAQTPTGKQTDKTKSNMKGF
T1 sequence (Q96SW2 whole entry): as the sequence (Q96SW2 whole entry) above
T1 sequence (Q16531 2-1140 partner limits assumed): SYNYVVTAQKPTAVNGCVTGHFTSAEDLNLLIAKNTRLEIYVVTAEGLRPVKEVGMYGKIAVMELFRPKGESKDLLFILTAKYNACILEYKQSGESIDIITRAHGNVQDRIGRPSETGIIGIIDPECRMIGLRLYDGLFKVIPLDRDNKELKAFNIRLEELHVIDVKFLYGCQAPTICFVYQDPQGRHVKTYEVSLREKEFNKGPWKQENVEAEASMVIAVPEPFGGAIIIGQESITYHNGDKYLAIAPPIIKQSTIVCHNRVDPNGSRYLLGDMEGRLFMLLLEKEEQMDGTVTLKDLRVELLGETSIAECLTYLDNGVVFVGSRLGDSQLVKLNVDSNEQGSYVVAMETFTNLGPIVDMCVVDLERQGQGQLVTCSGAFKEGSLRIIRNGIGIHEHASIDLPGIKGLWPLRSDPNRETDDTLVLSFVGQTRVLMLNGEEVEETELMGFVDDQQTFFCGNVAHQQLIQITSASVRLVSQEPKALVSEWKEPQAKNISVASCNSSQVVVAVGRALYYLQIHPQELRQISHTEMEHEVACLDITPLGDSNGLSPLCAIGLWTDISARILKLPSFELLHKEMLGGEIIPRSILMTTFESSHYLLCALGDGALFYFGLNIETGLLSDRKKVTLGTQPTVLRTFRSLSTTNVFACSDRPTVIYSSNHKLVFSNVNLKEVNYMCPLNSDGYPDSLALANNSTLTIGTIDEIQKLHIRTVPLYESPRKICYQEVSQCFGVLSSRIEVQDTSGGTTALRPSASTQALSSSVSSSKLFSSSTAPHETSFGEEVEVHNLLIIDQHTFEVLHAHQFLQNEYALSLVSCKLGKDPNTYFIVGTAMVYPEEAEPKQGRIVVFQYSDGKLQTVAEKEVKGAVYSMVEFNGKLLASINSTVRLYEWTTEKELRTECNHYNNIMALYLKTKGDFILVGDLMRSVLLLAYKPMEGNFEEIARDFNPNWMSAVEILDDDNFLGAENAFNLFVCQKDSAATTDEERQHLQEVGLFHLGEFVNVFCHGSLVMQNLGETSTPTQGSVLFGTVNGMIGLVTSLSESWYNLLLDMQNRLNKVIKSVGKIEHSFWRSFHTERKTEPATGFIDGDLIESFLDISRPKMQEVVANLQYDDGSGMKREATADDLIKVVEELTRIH
Method: HEK293 clonal line with CRISPR KI HiBiT tag on CSNK1A1 and stably expressing LgBiT protein was obtained from Promega (Madison, WI). Cells were plated at 5000 cells per well using Multiflo (BioTek) in 384-well white solid bottom plates (Corning, 3570BC) in […] volume in DMEM media (DMEM, high glucose, HEPES, no phenol red (ThermoFisher Scientific, 21063029)) containing 10% FBS (Corning, 35-075-CV), 1% Penicillin/Streptomycin ((ThermoFisher Scientific, 15140-122), and 0.2% Endurazine (Nano-Glo Endurazine Live Cell Substrate (Promega, N2571)). Cells were incubated for 16 hours at 37C, 5% CO2. Depending on experiment 25 or 75 nL of a compound at 10 mM were added into the plate using an Echo®650 liquid handler (Labcyte) to achieve final concentration of […] in wells. Cells were incubated at 37° C., 5% CO2 for 24 hours followed by signal was read on Pherastar FSX using “LUM plus” optic module.
Data analysis was performed using Scinamic (Scinamic, Cambridge, MA).
Luminescence response (R) was calculated by the formula: response=100*(S−N)/(P−N), where S is the signal of the well, N and P the mean negative and positive control values, respectively, of the same plate. The luminescence response was then fitted in Scinamic using a 3-parameter agonist logistic fit (hillslope=1, EC50>0, top/bottom unconstrained).
DC50 data are reported in Table 2 for compounds in Table 1. In Table 2 below, According to the code, A represents a DC50 value of ≤0.1 μM, B represents a DC50 value>0.1 μM and ≤1 μM, C represents an DC50 value>1 μM.

Compound	IC50 (CRBN/DDB1) [µM]	DC50 (CK1α) [µM]
O=C1CCC(N2Cc3cc(NC(=O)C4CC(c5ccccc5)C4)ccc3C2=O)C(=O)N1 (centres unmarked) [Compound 117, N-(2-(2,6-dioxopiperidin-3-yl)-1-oxoisoindolin-5-yl)-3-phenylcyclobutanecarboxamide]	0.1 to 1	< 0.1
Cn1ccnc1C(=O)Nc1ccc2c(c1)CN(C1CCC(=O)NC1=O)C2=O (centres unmarked) [Compound 119, N-(2-(2,6-dioxopiperidin-3-yl)-1-oxoisoindolin-5-yl)-1-methyl-1H-imidazole-2-carboxamide]	0.1 to 1	> 1
O=C1CCC(N2Cc3cc(NC(=O)c4ncco4)ccc3C2=O)C(=O)N1 (centres unmarked) [Compound 120, N-(2-(2,6-dioxopiperidin-3-yl)-1-oxoisoindolin-5-yl)oxazole-2-carboxamide]	0.1 to 1	< 0.1
O=C1CCC(N2Cc3cc(NC(=O)c4ccc(C(F)(F)F)cc4)ccc3C2=O)C(=O)N1 (centres unmarked) [Compound 122, N-(2-(2,6-dioxopiperidin-3-yl)-1-oxoisoindolin-5-yl)-4-(trifluoromethyl)benzamide]	0.1 to 1	< 0.1
Cc1ccc(C(=O)Nc2ccc3c(c2)CN(C2CCC(=O)NC2=O)C3=O)cn1 (centres unmarked) [Compound 123, N-(2-(2,6-dioxopiperidin-3-yl)-1-oxoisoindolin-5-yl)-6-methylnicotinamide]	0.1 to 1	0.1 to 1
O=C1CCC(N2Cc3cc(NC(=O)c4cccc5c4CC(=O)N5)ccc3C2=O)C(=O)N1 (centres unmarked) [Compound 124, N-(2-(2,6-dioxopiperidin-3-yl)-1-oxoisoindolin-5-yl)-2-oxoindoline-4-carboxamide]	≤ 0.1	0.1 to 1
O=C1CCC(N2Cc3cc(NC(=O)c4cccc(C(F)(F)F)c4)ccc3C2=O)C(=O)N1 (centres unmarked) [Compound 125, N-(2-(2,6-dioxopiperidin-3-yl)-1-oxoisoindolin-5-yl)-3-(trifluoromethyl)benzamide]	0.1 to 1	< 0.1
Cc1ccc(C(=O)Nc2ccc3c(c2)CN(C2CCC(=O)NC2=O)C3=O)cc1 (centres unmarked) [Compound 127, N-(2-(2,6-dioxopiperidin-3-yl)-1-oxoisoindolin-5-yl)-4-methylbenzamide]	0.1 to 1	< 0.1
O=C1CCC(N2Cc3cc(NC(=O)c4ccccc4C4CCCC4)ccc3C2=O)C(=O)N1 (centres unmarked) [Compound 128, 2-cyclopentyl-N-(2-(2,6-dioxopiperidin-3-yl)-1-oxoisoindolin-5-yl)benzamide formate]	0.1 to 1	> 1
N#Cc1ccc(C(=O)Nc2ccc3c(c2)CN(C2CCC(=O)NC2=O)C3=O)cc1 (centres unmarked) [Compound 130, 4-cyano-N-(2-(2,6-dioxopiperidin-3-yl)-1-oxoisoindolin-5-yl)benzamide]	0.1 to 1	0.1 to 1
O=C1CCC(N2Cc3cc(NC(=O)c4ccccn4)ccc3C2=O)C(=O)N1 (centres unmarked) [Compound 133, N-(2-(2,6-dioxopiperidin-3-yl)-1-oxoisoindolin-5-yl)]	0.1 to 1	0.1 to 1
CC(C)Cc1ccccc1C(=O)Nc1ccc2c(c1)CN(C1CCC(=O)NC1=O)C2=O (centres unmarked) [Compound 134, N-(2-(2,6-dioxopiperidin-3-yl)-1-oxoisoindolin-5-yl)-2-isobutylbenzamide]	0.1 to 1	0.1 to 1
N#Cc1cccc(C(=O)Nc2ccc3c(c2)CN(C2CCC(=O)NC2=O)C3=O)c1 (centres unmarked) [Compound 136, 3-cyano-N-(2-(2,6-dioxopiperidin-3-yl)-1-oxoisoindolin-5-yl) benzamide]	0.1 to 1	0.1 to 1
CC(C)c1ccccc1C(=O)Nc1ccc2c(c1)CN(C1CCC(=O)NC1=O)C2=O (centres unmarked) [Compound 140, N-(2-(2,6-dioxopiperidin-3-yl)-1-oxoisoindolin-5-yl)-2-isopropylbenzamide]	0.1 to 1	0.1 to 1

Further lines, results first:

IC50 (CRBN/DDB1) [µM]	DC50 (CK1α) [µM]	Compound
0.1 to 1	> 1	N#Cc1ccccc1C(=O)Nc1ccc2c(c1)CN(C1CCC(=O)NC1=O)C2=O (centres unmarked) [Compound 118, 2-cyano-N-(2-(2,6-dioxopiperidin-3-yl)-1-oxoisoindolin-5-yl)benzamide]
0.1 to 1	< 0.1	O=C1CCC(N2Cc3cc(NC(=O)c4ccc(Cl)c(F)c4)ccc3C2=O)C(=O)N1 (centres unmarked) [Compound 121, 4-chloro-N-(2-(2,6-dioxopiperidin-3-yl)-1-oxoisoindolin-5-yl)-3-fluorobenzamide]
0.1 to 1	< 0.1	O=C1CCC(N2Cc3cc(NC(=O)c4ccc(F)cc4)ccc3C2=O)C(=O)N1 (centres unmarked) [Compound 126, N-(2-(2,6-dioxopiperidin-3-yl)-1-oxoisoindolin-5-yl)-4-fluorobenzamide]
0.1 to 1	< 0.1	O=C1CCC(N2Cc3cc(NC(=O)c4cccc5c4CCC5)ccc3C2=O)C(=O)N1 (centres unmarked) [Compound 129, N-(2-(2,6-dioxopiperidin-3-yl)-1-oxoisoindolin-5-yl)-2,3-dihydro-1H-indene-4-carboxamide]
0.1 to 1	< 0.1	O=C1CCC(N2Cc3cc(NC(=O)c4ccc(Cl)cc4F)ccc3C2=O)C(=O)N1 (centres unmarked) [Compound 131, 4-chloro-N-(2-(2,6-dioxopiperidin-3-yl)-1-oxoisoindolin-5-yl)-2-fluorobenzamide]
0.1 to 1	0.1 to 1	Cc1ccccc1C(=O)Nc1ccc2c(c1)CN(C1CCC(=O)NC1=O)C2=O (centres unmarked) [Compound 132, N-(2-(2,6-dioxo-3-piperidyl)-1-oxo-isoindolin-5-yl)-2-methyl-benzamide]
0.1 to 1	< 0.1	O=C1CCC(N2Cc3cc(NC(=O)c4ccccc4C(F)(F)F)ccc3C2=O)C(=O)N1 (centres unmarked) [Compound 137, N-(2-(2,6-dioxopiperidin-3-yl)-1-oxoisoindolin-5-yl)-2-(trifluoromethyl)benzamide]
0.1 to 1	< 0.1	Cc1cccc(C(=O)Nc2ccc3c(c2)CN(C2CCC(=O)NC2=O)C3=O)c1 (centres unmarked) [Compound 139, N-(2-(2,6-dioxopiperidin-3-yl)-1-oxoisoindolin-5-yl)-3-methylbenzamide]
